Test results taken from ChEMBL document CHEMBL1201862, “PubChem BioAssay data set” (2004).
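How tested: cells in 96-well plates exposed to compound for 48 hours at five concentrations. GI50 is the concentration that inhibits growth by half.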 Active and inactive are the calls of the source. Rule as the data show it: active = GI50 up to about 1.1 µM and inactive = higher.

How the values were obtained:
Assay in all cases: NCI tumour cell line growth inhibition, 48 h
SF-295 = test system: SF-295
UACC-62 = test system: UACC-62
NCI-H226 = test system: NCI-H226
SNB-19 = test system: SNB-19
HCC 2998 = test system: HCC 2998
SK-MEL-2 = test system: SK-MEL-2
HL-60 = test system: HL-60
SF-268 = test system: SF-268
HOP-62 = test system: HOP-62
OVCAR-5 = test system: OVCAR-5
CAKI-1 = test system: CAKI-1
A549 = test system: A549
U-251 = test system: U-251
Malme-3M = test system: Malme-3M
HCT-15 = test system: HCT-15
SF-539 = test system: SF-539
NCI-H460 = test system: NCI-H460
HCT-116 = test system: HCT-116
786-0 = test system: 786-0

SMILES | GI50 (SF-295) | GI50 (UACC-62) | GI50 (NCI-H226) | GI50 (SNB-19) | GI50 (HCC 2998) | GI50 (SK-MEL-2) | GI50 (HL-60) | GI50 (SF-268) | GI50 (HOP-62) | GI50 (OVCAR-5) | GI50 (CAKI-1) | GI50 (A549) | GI50 (U-251) | GI50 (Malme-3M) | GI50 (HCT-15) [µM] | GI50 (SF-539) | GI50 (NCI-H460) | GI50 (HCT-116) | GI50 (786-0)
CCC1=C(C=O)c2cc3[nH]c(cc4nc(c5c6[nH]c(cc1n2)c(C)c6C(=O)C5C(=O)OC)C(CCC(=O)OC)C4C)c(C)c3CC (stereo not given) | > 100 µM (inactive) | > 100 µM (inactive) | > 100 µM (inactive) | > 100 µM (inactive) | > 100 µM (inactive) | > 100 µM (inactive) | > 100 µM (inactive) | > 100 µM (inactive) | > 100 µM (inactive) | > 100 µM (inactive) | > 100 µM (inactive) | > 100 µM (inactive) | > 100 µM (inactive) | > 100 µM (inactive) | > 100 | > 100 µM (inactive) | > 100 µM (inactive) | > 100 µM (inactive) | > 100 µM (inactive)
O=C1N/C(=N/N=C\c2ccccc2)N/C1=C/c1ccccc1 | 38.9 µM (inactive) |  | 14.8 µM (inactive) | 21.6 µM (inactive) | 13.9 µM (inactive) | 27.6 µM (inactive) | 34 µM (inactive) | 27.3 µM (inactive) | 19.5 µM (inactive) | 21.6 µM (inactive) | 27.8 µM (inactive) | 35.7 µM (inactive) | 33.7 µM (inactive) | 34.2 µM (inactive) | 32.9 | 20.5 µM (inactive) | 20.6 µM (inactive) | 34.6 µM (inactive) | 33.6 µM (inactive)
O=S(=O)(SC1=NCCN1)c1ccc2ccccc2c1 | 24.8 µM (inactive) | 30.1 µM (inactive) | 28.9 µM (inactive) | 20.2 µM (inactive) | 20.6 µM (inactive) | 24.8 µM (inactive) | 16.3 µM (inactive) | 23.2 µM (inactive) | 23.3 µM (inactive) | 18.8 µM (inactive) | 95.1 µM (inactive) | 26.8 µM (inactive) | 23.8 µM (inactive) | 72.6 µM (inactive) | 25.1 | 23.8 µM (inactive) | 21.6 µM (inactive) | 22.5 µM (inactive) | 28.1 µM (inactive)
Cc1cccc(O)c1-c1nnc(CCCCCCCCc2nnc(-c3c(C)cccc3O)n2N)n1N | 51.6 µM (inactive) | 66.7 µM (inactive) | 55.7 µM (inactive) | 41.2 µM (inactive) | > 100 µM (inactive) | 38.3 µM (inactive) | 0.139 µM (active) | 51.3 µM (inactive) | 27.6 µM (inactive) | > 100 µM (inactive) | > 100 µM (inactive) | > 46.5 µM (inactive) | 23.2 µM (inactive) | > 85.3 µM (inactive) | > 100 | > 96.4 µM (inactive) | 24.3 µM (inactive) | 72.3 µM (inactive) | 2.67 µM (inactive)
Cc1ccc(Nc2nc3c(=O)n(C)c(=O)n(C)c3nc2Nc2ccc(C)cc2)cc1 | 20.8 µM (inactive) | 12.3 µM (inactive) | 28.8 µM (inactive) | 31.3 µM (inactive) | 17.5 µM (inactive) | 17.8 µM (inactive) | 9.66 µM (inactive) | 16 µM (inactive) | 18.9 µM (inactive) | 16.4 µM (inactive) | 16.4 µM (inactive) | 19.9 µM (inactive) | 16.3 µM (inactive) | 14.9 µM (inactive) | 3.32 | 13.5 µM (inactive) | 28.8 µM (inactive) | 9.27 µM (inactive) | 6.04 µM (inactive)
Clc1nss/c1=N/c1nonc1-c1ccccc1 | 55.2 µM (inactive) | 33.3 µM (inactive) | 29.6 µM (inactive) | 55.6 µM (inactive) | > 100 µM (inactive) | 34.9 µM (inactive) | 3.62 µM (inactive) |  | 51.3 µM (inactive) | 19.5 µM (inactive) | 17.1 µM (inactive) | 68.9 µM (inactive) | 41.1 µM (inactive) | 28 µM (inactive) | > 100 | 22.7 µM (inactive) | > 100 µM (inactive) | 34.9 µM (inactive) | 30.5 µM (inactive)
COc1ccc(C(OCC2OC(n3cc(C)c(=O)[nH]c3=O)CC2n2cc(Cn3cc(Cl)c(=O)[nH]c3=O)nn2)(c2ccccc2)c2ccccc2)cc1 (stereo not given) | > 100 µM (inactive) | 38 µM (inactive) | > 100 µM (inactive) | > 100 µM (inactive) | > 100 µM (inactive) | > 100 µM (inactive) | 3 µM (inactive) | > 100 µM (inactive) | > 100 µM (inactive) | > 100 µM (inactive) | > 100 µM (inactive) | > 100 µM (inactive) | 24.8 µM (inactive) | > 100 µM (inactive) | > 100 | > 100 µM (inactive) |  | 33.9 µM (inactive) | > 100 µM (inactive)
O=C1OCC2(CO1)CC1C=CC2C1 (stereo not given) | > 100 µM (inactive) | > 100 µM (inactive) | > 100 µM (inactive) | > 100 µM (inactive) | > 100 µM (inactive) | > 100 µM (inactive) | > 100 µM (inactive) | > 100 µM (inactive) | > 100 µM (inactive) | > 100 µM (inactive) | > 100 µM (inactive) | > 100 µM (inactive) | > 100 µM (inactive) | > 100 µM (inactive) | > 100 | > 100 µM (inactive) | > 100 µM (inactive) | > 100 µM (inactive) | > 100 µM (inactive)
N#C/C(=C\Nc1ccccn1)C(=O)c1ccco1 | > 100 µM (inactive) | > 100 µM (inactive) | > 100 µM (inactive) | > 100 µM (inactive) | > 100 µM (inactive) | > 100 µM (inactive) | > 100 µM (inactive) | > 100 µM (inactive) | > 100 µM (inactive) | > 100 µM (inactive) | > 100 µM (inactive) | > 100 µM (inactive) | > 100 µM (inactive) | > 100 µM (inactive) | > 100 | > 100 µM (inactive) | > 100 µM (inactive) | > 100 µM (inactive) | > 100 µM (inactive)
CCOC(=O)C(NC(=O)OCc1ccccc1)C(=O)O (stereo not given) | > 100 µM (inactive) | > 100 µM (inactive) | > 100 µM (inactive) | > 100 µM (inactive) | > 100 µM (inactive) | > 100 µM (inactive) | > 100 µM (inactive) | > 100 µM (inactive) | > 100 µM (inactive) | > 100 µM (inactive) | > 100 µM (inactive) | > 100 µM (inactive) | > 100 µM (inactive) | > 100 µM (inactive) | > 100 | > 100 µM (inactive) | > 100 µM (inactive) | > 100 µM (inactive) | > 100 µM (inactive)
COC(=O)C1Cc2cc3c(cc2C1=O)CCCC3 (stereo not given) | 62.1 µM (inactive) | > 100 µM (inactive) | 23.8 µM (inactive) | 56.5 µM (inactive) | > 100 µM (inactive) | > 100 µM (inactive) | 29.2 µM (inactive) | 62.1 µM (inactive) | 48.6 µM (inactive) | 72.9 µM (inactive) | 54.1 µM (inactive) | > 100 µM (inactive) | 43.5 µM (inactive) | > 100 µM (inactive) | 43.2 | > 100 µM (inactive) | > 100 µM (inactive) | 42.3 µM (inactive) | 66.5 µM (inactive)
CC(C)OC(=O)NNc1c(Cl)cc(Cl)cc1Cl | 77.6 µM (inactive) | 56.9 µM (inactive) |  | > 100 µM (inactive) | 89.9 µM (inactive) | 55.6 µM (inactive) | 68.9 µM (inactive) | 39.1 µM (inactive) | > 100 µM (inactive) | > 100 µM (inactive) | 58.6 µM (inactive) | 53 µM (inactive) | > 100 µM (inactive) | 20.4 µM (inactive) | 58.5 | > 100 µM (inactive) | 63.7 µM (inactive) | 80.9 µM (inactive) | > 100 µM (inactive)
O=C(O)c1ccc(NC(c2ccccc2)c2ccc3cccnc3c2O)cc1 (stereo not given) | 4 µM (inactive) | 6.58 µM (inactive) | 3.88 µM (inactive) | 6.7 µM (inactive) | 13 µM (inactive) | 26.1 µM (inactive) | 2.65 µM (inactive) | 7.1 µM (inactive) | 6.15 µM (inactive) | 16.8 µM (inactive) | 7.83 µM (inactive) | 5.94 µM (inactive) | 4.17 µM (inactive) | 29 µM (inactive) | 4.95 | 5.66 µM (inactive) | 4.09 µM (inactive) | 3.67 µM (inactive) | 6.04 µM (inactive)
Cc1ccc(NC(=O)CSc2nc(C)nc3c2sc(=S)n3-c2ccccc2)cc1 | 5 µM (inactive) | > 10 µM (inactive) | 3.33 µM (inactive) | 5.37 µM (inactive) | > 10 µM (inactive) | > 10 µM (inactive) | > 10 µM (inactive) | 6.14 µM (inactive) | 2.29 µM (inactive) | > 10 µM (inactive) | > 10 µM (inactive) | > 10 µM (inactive) | 3.84 µM (inactive) | 7.8 µM (inactive) | > 10 | 3.01 µM (inactive) | 5.48 µM (inactive) | 4.24 µM (inactive) | 2.37 µM (inactive)
COc1ccc(NC(=O)/C(=N/NC(N)=S)C2C(=O)NC(=S)NC2=O)c(OC)c1 | > 100 µM (inactive) | > 100 µM (inactive) | > 100 µM (inactive) | > 100 µM (inactive) | > 100 µM (inactive) | > 100 µM (inactive) | > 100 µM (inactive) | > 100 µM (inactive) |  | > 100 µM (inactive) | > 100 µM (inactive) | > 100 µM (inactive) | > 100 µM (inactive) | > 100 µM (inactive) | > 100 | > 100 µM (inactive) | > 100 µM (inactive) | > 100 µM (inactive) | > 100 µM (inactive)
